The target of assay [1] is Human immunodeficiency virus type 1 reverse transcriptase (Human immunodeficiency virus 1) (UniProt Q72547). The experiment in a line: Activity at HIV1 reverse transcriptase assessed as elongation of DNA primer up to 120 mins at 500 uM by single nucleotide incorporation assay.
For assay [2] the target is unchanged. The experiment in a line: Activity at HIV1 reverse transcriptase assessed as elongation of DNA primer after 60 mins at 500 uM by single nucleotide incorporation assay.
The target is the same in assay [3]. The experiment in a line: Activity at HIV1 reverse transcriptase assessed as elongation of DNA primer up to 120 mins at 1 mM by single nucleotide incorporation assay.
Assay [4] shares this target. The assay is described as follows: Activity at HIV1 reverse transcriptase assessed as elongation of DNA primer after 60 mins by single nucleotide incorporation assay.

Activity calls are given as the source filed them. No cut-off for these calls is given here.

For the compound `Nc1ccn([C@H]2C[C@H](O)[C@@H](COP(=O)(O)NCCCC(C(=O)O)C(=O)O)O2)c(=O)n1`, the Activity in assay [1] came to 60%; in assay [2], 54%; in assay [3], 60%.

For `Nc1ncnc2c1ncn2[C@H]1C[C@H](O)[C@@H](COP(=O)(O)N[C@@H](CC(=O)O)C(=O)O)O1`, in assay [2], the Activity was found to be 82%. Take `Nc1ccn([C@@H]2O[C@H](COP(=O)(O)NCCCC(C(=O)O)C(=O)O)C[C@H]2O)c(=O)n1`: the result in assay [4] was inactive.

(Values after ChEMBL document CHEMBL1152581, “Delta-di-carboxybutyl phosphoramidate of 2'-deoxycytidine-5'-monophosphate as substrate for DNA polymerization by HIV-1 reverse transcriptase” (Bioorg Med Chem, 2009).)
